Results from ChEMBL document CHEMBL1152104, “Synthesis of partially non-peptidic neurotensin mimetics” (Bioorg Med Chem Lett, 1994).
pEC50, pKd: −log10 of the molar value.

How the values were obtained:
[1] = species on record: Homo sapiens; assay: Concentration required to stimulate cGMP production in NIE-115 neuroblastoma cells at higher doses in 10-100 uM range; format: functional, cell-based
[2] = biological target: T1, Neurotensin receptor type 1 (Rattus norvegicus, UniProt P20789); assay: Equilibrium dissociation constant at cloned rat Neurotensin receptor (NT) receptor expressed in CHO-K1 cells; 0.3-0.7 uM; format: cell-based
T1 sequence (P20789 whole entry): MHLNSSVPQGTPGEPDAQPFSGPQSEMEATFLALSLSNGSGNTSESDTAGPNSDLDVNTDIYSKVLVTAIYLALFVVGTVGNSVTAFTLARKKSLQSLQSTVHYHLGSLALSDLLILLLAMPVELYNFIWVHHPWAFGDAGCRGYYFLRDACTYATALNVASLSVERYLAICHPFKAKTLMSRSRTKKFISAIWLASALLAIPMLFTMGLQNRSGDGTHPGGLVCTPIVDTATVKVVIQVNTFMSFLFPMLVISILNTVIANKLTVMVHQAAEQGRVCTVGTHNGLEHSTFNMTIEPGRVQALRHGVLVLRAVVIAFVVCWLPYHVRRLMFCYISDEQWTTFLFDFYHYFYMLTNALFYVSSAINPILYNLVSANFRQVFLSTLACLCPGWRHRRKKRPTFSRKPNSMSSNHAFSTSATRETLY

[3] = test system: CHO-K1; assay: Effect on PI turnover in intact CHO-K1 cells; format: functional, cell-based; settings: Cricetulus griseus
[4] = biological target: T1, Neurotensin receptor type 1; assay: Equilibrium dissociation constant at cloned rat Neurotensin receptor (NT) receptor

| pEC50 [1] | pKd [2] | pKd [4] | Compound | pEC50 [3] |
| --- | --- | --- | --- | --- |
| 4.72 | 6.52 |  | CC[C@H](C)[C@H](NC(=O)[C@H](Cc1ccc(O)cc1)NC(=O)c1[nH]c2c(OCCCCCN=C(N)N)cccc2c1CCCCCCN=C(N)N)C(=O)N[C@@H](CC(C)C)C(=O)O.O=C(O)C(F)(F)F |  |
|  | 6.52 |  | CC[C@H](C)[C@H](NC(=O)[C@H](Cc1ccc(O)cc1)NC(=O)c1[nH]c2c(OCCCCCN)cccc2c1CCCCCCN)C(=O)N[C@@H](CC(C)C)C(=O)O | ~5.89 |
|  |  | ~4.40 | CC[C@H](C)[C@H](NC(=O)[C@H](Cc1ccc(O)cc1)NC(=O)c1[nH]c2ccc(OCCCCCN)cc2c1CCCCCCN)C(=O)N[C@@H](CC(C)C)C(=O)O |  |
|  | 6.52 |  | CC[C@H](C)[C@H](NC(=O)[C@H](Cc1c[nH]c2ccccc12)NC(=O)c1[nH]c2c(OCCCCCN=C(N)N)cccc2c1CCCCCCN=C(N)N)C(=O)N[C@@H](CC(C)C)C(=O)O |  |
